Assays:
[1] = Liver triphosphate pharmacokinetics after single oral dose in cynomolgus monkeys; assay type: in vivo; settings: normalized to 1 μmol/kg dose
Protocol: (§1) For each compound, a single oral dose at 10 mg/kg in PEG 200 (dose volume 3 mL/kg) was administered to cynomolgus monkeys. Untreated animals were used for the collection of control liver. Plasma samples were collected at 0.5, 1, 2, 4, 6, 8, 12 and 24 hours for compound 37, diastereomer 2.
Liver samples were analyzed for the relevant nucleoside triphosphate by LC-MS/MS. […] Appropriate internal standard solution was added to the homogenate followed by neutralization with 20% ammonium hydroxide solution and addition of 500 μL 1% formic acid. The tissue samples were extracted by weak anion exchange solid phase extraction (SPE). Post extraction, the eluates were evaporated under nitrogen, followed by reconstitution before injection onto the LC-MS/MS system.

[2] = Stability in simulated intestinal fluid; assay type: in vitro ADME; settings: simulated intestinal fluid with pancreatin, 100 μM, 2 hours, 37° C.
Protocol: (§2) Stability in Simulated Gastric and Intestinal Fluids: Simulated gastric and intestinal fluids containing pepsin and pancreatin respectively were prepared according to the U.S. Pharmacopoeia USP291 procedure(www.pharmacopeia.cn/v29240/usp29nf24s0_ris1s126.html). Each test compound (final concentration 100 μM) was incubated in duplicate in the appropriate fluid for 2 hours at 37° C. The samples were quenched with […] cold acetonitrile, vortexed for 30 seconds and then centrifuged at 16100×g for 10 min. The supernatants were analyzed by HPLC on a C-18 column with UV detection at 252 nm. The time zero samples were prepared by adding SGF or SIF fluid to the quenching solvent followed by the test compound. Stability of the compound was determined by peak area of the test compound after incubation and calculated as percent of the peak area observed at time zero.

HCV genotype 1b replicon [3] = experiment: HCV replicon assay (Zluc luciferase); assay type: cell-based; settings: Zluc cells, 72 hours; read-out: HCV Replicon EC50
Outline: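 Zluc Huh-7 cells with HCV genotype 1b replicon and luciferase reporter treated with 5-fold dilutions (100 μM to 0.0000512 μM final) in duplicate, or at 1 and 10 μM. Luminescence read with ONE-glo; EC50 from dose-response fits, or % inhibition at the fixed concentrations.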

[4] = Plasma nucleoside pharmacokinetics after single oral dose in CD-1 mice; assay type: in vivo; settings: single oral dose 10 mg/kg in PEG 200
Outline: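 Mouse plasma was extracted by acetonitrile/0.2% formic acid protein precipitation using 2′-MeG-D3 or tiapride as internal standard. Nucleoside was quantified by positive-ion LC-MS/MS after C18 gradient separation. Calibration spanned 0.500 (LLOQ) to 200 ng/mL.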

fresh human hepatocytes = experiment: Release of active metabolite in fresh human hepatocytes; assay type: in vitro ADME; design: key to FHH TP (6 hr): + ≤ 15; 15 < ++ ≤ 50; 50 < +++ ≤ 100; 100 < ++++; BLD = below limit of detection; settings: 10 μM
Protocol: (§3) Plates of fresh human and mouse hepatocytes were obtained on ice. The medium was removed and replaced with hepatocyte culture medium (William's E supplemented with penicillin-streptomycin, 1% L-glutamine, 1% insulin-transferrin-selenium and 0.1 μM Dexamethasone (Invitrogen) or with Invitro GRO HI medium complemented with Torpedo antibiotics (Celsis)). Cells were left overnight in an incubator at 37° C. to acclimatize to culture and the medium.
(§4) Hepatocyte incubations were conducted at a final volume of 0.5 mL hepatocyte culture medium/well (0.8 million cells/well for human and 0.5 million cells/well for mouse; 12 well plate no overlay, collagen coat). Culture medium from overnight incubation of cells was removed and replaced with fresh medium, pre-warmed to 37° C., containing 10 μM of test compound from a stock solution in DMSO (final DMSO concentration was 0.1%). At each specific time point, incubation medium was removed and cell monolayers were carefully washed two times with ice-cold PBS. Following the last wash, all PBS was carefully removed and 1.0 mL of extraction solution (ice-cold 70% methanol/30% water) added. Cells were scraped off and suspended in the extraction solution, transferred to 2 mL polypropylene microfuge tubes and intracellular contents extracted overnight at −20° C.
(§5) After the overnight treatment the cellular extracts were prepared by centrifugation at 16,000×g for 10 min to remove cellular debris. The remaining sample was then dried using a refrigerated centrivap concentrator. Dry extracts were reconstituted in 1000 μL of HPLC-grade water and centrifuged at 16,000×g for 10 min. Aliquots (100 μL each) of the supernatant were transferred into a 96 well plate and internal standard (4 ng/mL final concentration) was added as the internal standard (IS) for LC-MS/MS analysis.
(§6) The incubation time points were 6, 24 and 48 hours for human hepatocytes and 1, 4, 8, 12 and 24 hours for mouse hepatocytes.

Zluc cells [5] = experiment: Cytotoxicity evaluation, CellTiter-Blue Cell Viability Assay; settings: Zluc cells, CellTiter-Blue
fresh mouse hepatocytes = experiment: Release of active metabolite in fresh mouse hepatocytes; assay type: in vitro ADME; settings: 10 μM
Protocol: as §3, §4, §5, §6

[6] = Plasma prodrug and nucleoside pharmacokinetics after single oral dose in cynomolgus monkeys; assay type: in vivo; settings: cynomolgus monkey, plasma, single oral 10 mg/kg
Protocol: as §1
Plasma samples were analyzed for the prodrug and nucleoside by LC-MS/MS. For protein precipitation and extraction, each plasma sample (50 μL) was treated with 500 μL of 0.2% formic acid in acetonitrile and 20 μL of an appropriate internal standard working solution. After vortexing and centrifugation, 500 µL of the sample extracts were transferred to a new plate, dried under N2 at ˜28° C. and reconstituted with 75 μL of 0.2% FA in water. The extracts were chromatographed on an Aquasil C18 column using a gradient system of 0.2% formic acid in water and acetonitrile. The analytes were detected and quantified by tandem mass spectrometry in positive ion mode on an MDS Sciex API4000 equipped with a Turbo Ionspray® interface.

[7] = Stability in simulated gastric fluid; assay type: in vitro ADME; settings: simulated gastric fluid with pepsin, 100 μM, 2 hours, 37° C.
Protocol: as §2

Zluc + CES1 cells = experiment: Cytotoxicity in Zluc cells transfected with human CES1; assay type: cell-based; settings: Zluc cells transiently transfected with human CES1
Protocol: (§7) An Huh-7-derived cell line (Zluc) that harbors an HCV genotype 1b replicon and a luciferase reporter gene was grown in Dulbecco's Modified Eagle Medium (DMEM) supplemented with 10% fetal bovine serum, 2 mM GlutaMAX, 1% MEM nonessential amino acids, 100 IU/mL penicillin, 100 μg/mL streptomycin, and 0.5 mg/mL Geneticin® (G418). Zluc cells were transiently transfected with human CES1 (GenBank Accession No. NM_001025194) by employing a lipid/histone based transfection procedure. Expression of CES1 was confirmed by Western blot, 24- and 48-hours after transfection, using anti-CES1 and anti-FLAG® tag antibodies.
(§8) For cytotoxicity evaluation, cells were treated with compounds as described herein, and cell viability was monitored using the CellTiter-Blue Cell Viability Assay (Promega) by adding 20 μL of the assay solution to each well. The plates were then incubated at 37° C./5% CO2 for at least 3 hours.

Zluc cells [8] = experiment: Cytotoxicity in Zluc cells (CES1 study); assay type: cell-based
Protocol: as §8

HCV genotype 1b replicon [9] = experiment: HCV replicon assay in Zluc cells (CES1 study); assay type: cell-based; settings: 72 hours
Protocol: as §7
For dose response testing the cells were seeded in 96-well plates at 7.5×10^3 cells per well in a volume of […], and incubated at 37° C./5% CO2. Drug solutions were prepared freshly in the culture medium as 2× stocks. Ten additional 5-fold dilutions were prepared from these stocks in DMEM without G418. At least three hours after cells were seeded, drug treatment was initiated by adding 50 μL of drug dilutions to the plates in duplicate. […] The plates were shaken gently for 3 min at room temperature and luminescence was measured on a Victor^3 V 1420 multilabel counter (Perkin Elmer) with a 1 second read time using a 700 nm cut-off filter. The EC50 values were calculated from dose response curves from the resulting best-fit equations determined by Microsoft Excel and XLfit 4.1 software.

HCV genotype 1b replicon [10] = experiment: HCV replicon assay in Zluc cells transiently transfected with human CES1; assay type: cell-based; settings: for EC50: Zluc cells transiently transfected with human CES1, 72 hours; for Effect of CES1 overexpression on replicon activity: cells overexpressing CES1 versus Zluc; for Fold Activity Increase EC50 (Zluc)/EC50 (Zluc + CES1): ratio of replicon EC50 without and with CES1 overexpression
Protocol: as §7
For dose response testing the cells were seeded in 96-well plates at 7.5×10^3 cells per well in a volume of […], and incubated at 37° C./5% CO2. Drug solutions were prepared freshly in the culture medium as 2× stocks. Ten additional 5-fold dilutions were prepared from these stocks in DMEM without G418. At least three hours after cells were seeded, drug treatment was initiated by adding 50 μL of drug dilutions to the plates in duplicate. Final concentrations of drug ranged from 100 μM to 0.0000512 μM. Cells were then incubated at 37° C./5% CO2. […] For this, media was removed from the plates via gentle tapping. Fifty microliters of ONE-glo luciferase assay reagent was added to each well. The plates were shaken gently for 3 min at room temperature and luminescence was measured on a Victor^3 V 1420 multilabel counter (Perkin Elmer) with a 1 second read time using a 700 nm cut-off filter. The EC50 values were calculated from dose response curves from the resulting best-fit equations determined by Microsoft Excel and XLfit 4.1 software.

[11] = Cytotoxicity in Zluc cells transfected with human CES1; assay type: cell-based; settings: Zluc cells transiently transfected with human CES1
Protocol: as §7, §8

[12] = Cytotoxicity in Zluc cells (CES1 study); assay type: cell-based; settings: human
Protocol: as §8

CC(C)OP1(=O)OC[C@H]2O[C@@H](n3ccc(=O)[nH]c3=O)[C@](C)(Cl)[C@@H]2O1 (single isomer, unassigned) [Compound 37 Diastereomer 2]
Nucleoside triphosphate in Liver C6 ([1]; 6 hours post dose, 10 mg/kg oral): ++++ (100 < ++++) | Nucleoside triphosphate in Liver AUC0-24 ([1]; single oral 10 mg/kg): ++++ (1500 < ++++) | Nucleoside triphosphate in Liver Cmax ([1]; single oral 10 mg/kg): ++++ (100 < ++++) | SIF stability (percent remaining) [2]: ++++ (75% < ++++) | EC50 (HCV genotype 1b replicon [3]): 1000 to 10000 nM | Ms Plasma nucleoside Cmax [4]: +++ (50 < +++ ≤ 100) | FHH TP AUC (fresh human hepatocytes): +++ (500 < +++ ≤ 1500) | FHH TP Cmax (fresh human hepatocytes): ++ (15 < ++ ≤ 50) | FHH TP (6 hr) (fresh human hepatocytes; 6 hr): BLD^b | FHH TP (24 hr) (fresh human hepatocytes; 24 hr): ++ (15 < ++ ≤ 50) | FHH TP (48 hr) (fresh human hepatocytes; 48 hr): ++ (15 < ++ ≤ 50) | CC50 (Zluc cells [5]): > 50000 nM | MsH AUC (fresh mouse hepatocytes): ++++ (1500 < ++++) | MsH Cmax (fresh mouse hepatocytes): ++++ (100 < ++++) | Tmax [6]: 4 h | AUC(0-t) ([6]; normalized to 1 μmol/kg dose, read-out: Plasma prodrug AUC0-24): > 1.5 µM·h | Cmax ([6]; normalized to 1 μmol/kg dose, read-out: Plasma prodrug Cmax): > 100 nM | SGF stability (percent remaining) [7]: ++++ (75% < ++++)

CC(C)(CO)C(=O)SCCOP(=O)(NCc1ccccc1)OC[C@H]1O[C@@H](n2cnc3c(=O)[nH]c(N)nc32)[C@](C)(O)[C@@H]1O (stereo partly drawn) [IDX-184]
CC50 (Zluc + CES1 cells): > 50000 nM | CC50 (Zluc cells [8]): > 50000 nM | EC50 (HCV genotype 1b replicon [9]): < 250 nM | EC50 (HCV genotype 1b replicon [10]): < 250 nM | Effect of CES1 overexpression on replicon activity (HCV genotype 1b replicon [10]): not increased | Fold Activity Increase EC50 (Zluc)/EC50 (Zluc + CES1) (HCV genotype 1b replicon [10]): + (+ ≤ 1)

CC(C)OC(=O)[C@H](C)N[P@](=O)(OC[C@H]1O[C@@H](n2ccc(=O)[nH]c2=O)[C@](C)(F)[C@@H]1O)Oc1ccccc1 [Sofosbuvir, sofosbuvir]
CC50 [11]: > 50000 nM | CC50 [12]: > 50000 nM | EC50 (HCV genotype 1b replicon [9]; Hepatitis C virus): 250 to 1000 nM | EC50 (HCV genotype 1b replicon [10]; Hepatitis C virus): 250 to 1000 nM | Effect of CES1 overexpression on replicon activity (HCV genotype 1b replicon [10]): not increased | Fold Activity Increase EC50 (Zluc)/EC50 (Zluc + CES1) (HCV genotype 1b replicon [10]): + (+ ≤ 1)

Source: US10513534B2, “2′-chloro nucleoside analogs for HCV infection” (priority 2012, dated 2019)
